Test results taken from patent US20230293433A1, “METHOD OF MANUFACTURING MICELLES FOR DRUG DELIVERY” (Wisconsin Alumni Research Foundation, priority 2022, published 2023).

Key:
Format in all cases: physicochemical
[1] = Encapsulation efficiency and drug loading of PEG-assist micelles (centrifugation, HPLC)
Description: In order to prepare drug-loaded micelles, PTX (at a weight ratio of 1:2 w/w PTX: PEG4kDa-b-PLA2.2kDa corresponding to target loading of ca. 33 wt. %) was added to the mixture prior to heating to 60° C. The amount of water when PTX was present in the formulation was adjusted to aim for 4 mg/mL PTX level. […] The hydration process was performed under different conditions including rapid hydration (vortexing after addition of water) or slow hydration (a two-step hydration protocol consisting of addition of half of the target water volume followed by mixing and then addition of the rest followed by gentle mixing at 50 rpm in a rotary mixer). Micelles with the target loadings of 10 and 20 wt. % as well as 1 mg/mL PTX target level were prepared after optimizing the process parameters and used for other experiments such as stability measurement, scalability study and freeze-drying. To prepare formulations with 1 mg/mL PTX target level at 10 or 20 wt. % target loading, 1 mg PTX together with 9 or 4 mg copolymer were mixed with 170 or 75 mg PEG, respectively, and heated to 60° C. to obtain a transparent mixture. The added amounts of PEG keep the block copolymer concentration at 5.0 wt. % in the mixture. The mixture was cooled down to 40° C., incubated for 2 h followed by hydration with 1 mL DI water at 40° C. to obtain drug-loaded polymeric micelles. The samples were cooled down to room temperature and analyzed.
To measure the encapsulation efficiency, unencapsulated drug was first removed by centrifugation at 10000 g for 10 min. Following centrifugation, 50 μl of supernatant for each sample was mixed with 50 μl DI water and 400 μl acetonitrile (ACN). High performance liquid chromatography (HPLC, Prominence, Shimadzu, Japan) equipped with an autosampler, a C18 column and a UV-Vis detector was employed to measure PTX content. PTX was detected at 228 nm absorption wavelength by injecting 10 μl sample through an 80/20 ACN/water v/v mixture as the mobile phase under the flow rate of 0.5 mL/min. […]

[2] = Particle size, PdI and zeta potential by dynamic light scattering; conditions: PROTAC-loaded PEG-b-PLA micelles, PEG1000, hydrated at 40° C.
Description: Dynamic light scattering (DLS, nano ZS, Malvern) was used to measure particle size distribution and to investigate micelle formation. For particle size analysis, the measurements were carried out at 25° C. using water as dispersant.

[3] = Solubility of PTX in PEG-water mixtures; conditions: all examined PEG molecular weights
Excerpt: To begin with, we measured the solubility of PTX in mixtures of water and PEG of different molecular weights as a function of water content. Hydrophobic drugs such as PTX are highly soluble in liquid PEG. Addition of water, however, if surpasses a critical point, will result in precipitation of PTX (see FIG. 4). This critical point is positioned near 50.0 wt. % water content (or water:PEG 1:1 w/w ratio) for all the examined molecular weights. In other words, presence of equal or larger amount of water in a PEG-water mixture prohibits PTX solubility. Considering the PEG-assist preparation procedure, the water content always well exceeds the critical value in the final product (ca. 85.0, 92.0 or 96.0 wt. % water content at 1 mg/mL PTX level for 10, 20 or 33 wt. % target loading, respectively). Therefore, PEG-water mixture cannot play any solubilization role for PTX in the proposed system, and the drug is expected to mainly reside in the PEG-b-PLA micelles' core.

[4] = Stability of micelle formulations at room temperature; conditions: 20 wt. % target loading, 1 mg/mL, PEG1000, 40° C.
Description: We considered stability, applicability to other drugs and copolymers, scalability and long-term preservation as four more criteria to evaluate the PEG-assist method. The stability of PTX-loaded PEG-b-PLA micelles prepared at 20 wt. % target loading with 1 mg/mL target PTX level is shown in FIG. 9A. All the samples were prepared at saturation temperature i.e. 40° C. […] In other words, PTX remains soluble after 8 hours incubation at room temperature without any significant loss for any of the PEG molecular weights (p>0.05). […] We observed that all the samples were completely transparent without any visual precipitation within the 8 h time frame. […] The inherent incompatibility of PTX with the micelle core can be alleviated using acyl and ester prodrug strategies for physical loading purposes [Tam, Y. T., et al., “Poly (ethylene glycol)-block-poly (d, 1-lactic acid) micelles containing oligo (lactic acid) 8-paclitaxel prodrug: In Vivo conversion and antitumor efficacy” J. Control. Rel., 2019. 298:186-193; Tam, Y. T., J. Gao, and G. S. Kwon, “Oligo (lactic acid) n-paclitaxel prodrugs for poly (ethylene glycol)-block-poly (lactic acid) micelles: loading, release, and backbiting conversion for anticancer activity” J. Am. […]
The samples in Example 16, were monitored for stability after reconstitution. The particle size and PdI was measured at different time points (1, 2 and 7 days).

[5] = PROTAC-loaded PEG-b-PLA micelles, PEG1000, hydrated at 40° C.

Structure (SMILES): COc1cc2ncnc(Nc3ccc(F)c(Cl)c3)c2cc1OCCCCCOCCOCCC(=O)N[C@H](C(=O)N1C[C@H](O)C[C@H]1C(=O)NCc1ccc(-c2scnc2C)cc1)C(C)(C)C [Gefitinib-based PROTAC3]
- % Drug Loading [1, 5]: 17.2%
- % Encapsulation Efficiency [1, 5]: 83.0%
- PdI [2]: 0.208
- Size [2]: 34.1 ± 6.5 nm
- Zeta potential [2]: 3.39 ± 14.2 mV

Structure (SMILES): CC(=O)O[C@H]1C(=O)[C@@]2(C)[C@H]([C@H](OC(=O)c3ccccc3)[C@]3(O)C[C@H](OC(=O)[C@H](O)[C@@H](NC(=O)c4ccccc4)c4ccccc4)C(C)=C1C3(C)C)[C@]1(OC(C)=O)CO[C@@H]1C[C@@H]2O [PTX, Paclitaxel]
- critical water content of PEG-water mixture above which PTX precipitates [3]: ~50.0 wt. %

Structure (SMILES): C=CCNC1=C2C[C@@H](C)C[C@H](OC)[C@H](O)[C@@H](C)/C=C(\C)[C@H](OC(N)=O)[C@@H](OC)/C=C\C=C(/C)C(=O)NC(=CC1=O)C2=O [Sample 17AAG]
- encapsulation efficiency ([1]; 17AAG, 20 wt. % target loading, 1 mg/mL, PEG1000, 40° C.): 80.2±2.1%
- time stable at room temperature [4]: at least 24 h
